Measured values reported in US10076519B2 (CYTOKINETICS, INC., priority 2010, dated 2018).

Tested on: rabbit skeletal myofibrils (fast skeletal myofibrils)
Assay: Activation of fast skeletal myofibrils (PUMA assay, PK/LDH-coupled ATPase at pCa25)
Type: biochemical
How it was run: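 Detergent-washed rabbit psoas myofibrils (~90% fast fibres, calcium-regulated) assayed at calcium giving 25% of maximal ATPase rate (pCa25). ADP turnover coupled via pyruvate kinase/lactate dehydrogenase to NADH oxidation, read at 340 nm. Buffer 12 mM PIPES, 2 mM MgCl2, 1 mM DTT, pH 6.8; AC1.4 values derived.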

[1] = median AC1.4 class, procedure of Example 39
[2] = AC1.4 determined according to the procedure of Example 39, reported as class symbols
[3] = median AC1.4 reported as class, procedure of Example 39

Compound: O=C1NC[C@@H](C(=O)NCc2cnc(-c3ccc(NCC4(c5ncccc5F)CCC4)nn3)s2)N1 [((4S)-2-oxoimidazolidin-4-yl)-N-({2-[6-({[(3-fluoro(2-pyridyl))cyclobutyl]methyl}ami-no)pyridazin-3-yl](1,3-thiazol-5-yl)}methyl)carboxamide]
- Mean AC1.4 [1]: A (A=<1 uM)

Compound: CC(OC(=O)NC(C)(C)C(=O)NCc1cnc(-c2ccc(NCC3(c4ncccc4F)CCC3)nn2)s1)OC(=O)C(C)C (stereo not drawn) [(N-{1-[N-({2-[6-({[(3-fluoro(2-pyridyl))cyclobutyl]methyl}ami-no)pyridazin-3-yl](1,3-thiazol-5-yl)}methyl)carbamoyl]-isopropyl}carbamoyloxy)ethyl 2-methylpropanoate]
- Mean AC1.4 [1]: A (A=<1 uM)

Compound: NC1(C(=O)NCc2cnc(-c3ccc(NCC4(c5ncccc5F)CCC4)nn3)s2)CC1 [(aminocyclopropyl)-N-({2-[6-({[(3-fluoro(2-pyridyl))cyclobutyl]methyl}ami-no)pyridazin-3-yl](1,3-thiazol-5-yl)}methyl)carboxamide]
- Mean AC1.4 [1]: A (A=<1 uM)

Compound: c1ccc(-c2ccc(NC3(c4ccccc4)CCC3)nn2)cc1 [(phenylcyclobutyl)(6-phenylpyridazin-3-yl)amine]
- Mean AC1.4 [1]: B (B=1-10 uM)

Compound: CC(C)(C)OC(=O)NCCNc1n[nH]c2ccc(-c3ccc(NCC(C)(C)c4ccc(F)cc4)nn3)cc12 [(tert-butoxy)-N-(2-{[5-(6-{[2-(4-fluorophenyl)-2-methylpropyl]amino}pyridazin-3-yl)(1H-indazol-3-yl)]amino}ethyl)carboxamide]
- Mean AC1.4 [2]: A (A=<1 uM)

Compound: CC(C)(C)OC(=O)N(CC(C)(C)c1ncccc1F)c1ccc(-c2ccc3[nH]c(O)nc3c2)nn1 [(tert-butoxy)-N-[2-(3-fluoro(2-pyridyl))-2-methylpropyl]-N-[6-(2-hydroxybenzimidazol-5-yl)pyridazin-3-yl]carboxamide]
- Mean AC1.4 [2]: D (D=>20 uM)

Compound: CC(C)(C)OC(=O)N(CC(C)(C)c1ccc(F)cc1)c1ccc(-c2ccc3[nH]c(=O)c(=O)[nH]c3c2)nn1 [(tert-butoxy)-N-[6-(2,3-dioxo(1,4-dihydroquinoxalin-6-yl))pyridazin-3-yl]-N-[2-(4-fluorophenyl)-2-methylpropyl]carboxamide]
- Mean AC1.4 [2]: D (D=>20 uM)

Compound: CC(C)(C)OC(=O)NCc1cccc(-c2ccc(NCC(C)(C)c3ccc(F)cc3)nn2)c1 [(tert-butoxy)-N-{[3-(6-{[2-(4-fluorophenyl)-2-methylpropyl]amino}pyridazin-3-yl)phenyl]methyl}carboxamide]
- Mean AC1.4 [2]: B (B=1-10 uM)

Compound: CS(=O)(=O)NCc1cnc(-c2ccc(NCC3(c4ncccc4F)CCC3)nn2)s1 [({2-[6-({[(3-fluoro(2-pyridyl))cyclobutyl]methyl}ami-no)pyridazin-3-yl](1,3-thiazol-5-yl)}methyl)(methylsulfonyl)amine]
- Mean AC1.4 [1]: B (B=1-10 uM)

Compound: OCC1(CNc2ccc(-c3ccc4[nH]ncc4c3)nn2)CCC1 [({[(6-(1H-indazol-5-yl)pyridazin-3-yl)amino]methyl}cyclobut-yl)methan-1-ol]
- Mean AC1.4 [2]: D (D=>20 uM)

Compound: COC(=O)c1ccc(NCC(C)(C)c2ccc(F)cc2)nn1 [Methyl 6-(2-(4-fluorophenyl)-2-methylpropylamino)pyridazine-3-carboxylate]
- Mean AC1.4 [2]: C (C=10-20 uM)

Compound: O=C(NC1CS(=O)(=O)C1)c1cccc(-c2ccc(NC[C@]3(c4ncccc4F)C[C@H](F)C3)nn2)c1 [N-(1,1-dioxothietan-3-yl){3-[6-({[3-fluoro-1-(3-fluoro(2-pyridyl))cyclobutyl]methyl}ami-no)pyridazin-3-yl]phenyl}carboxamide]
- Mean AC1.4 [3]: B (B=1-10 uM)

Compound: O=C(NC1CCS(=O)(=O)C1)c1cnc(-c2ccc(NCC3(c4ncccc4F)CCC3)nn2)s1 (stereo not drawn) [N-(1,1-dioxothiolan-3-yl){2-[6-({[(3-fluoro(2-pyridyl))cyclobutyl]methyl}ami-no)pyridazin-3-yl](1,3-thiazol-5-yl)}carboxamide]
- Mean AC1.4 [1]: A (A=<1 uM)

Compound: O=C(NC1CCS(=O)(=O)C1)c1cccc(-c2ccc(NC[C@]3(c4ncccc4F)C[C@H](F)C3)nn2)c1 (stereo partly drawn) [N-(1,1-dioxothiolan-3-yl){3-[6-({[3-fluoro-1-(3-fluoro(2-pyridyl))cyclobutyl]methyl}ami-no)pyridazin-3-yl]phenyl}carboxamide]
- Mean AC1.4 [3]: B (B=1-10 uM)

Compound: CC(C)(CNc1ccc(C(=O)NC(CCC(N)=O)C(N)=O)nn1)c1ccc(F)cc1 (stereo not drawn) [N-(1,3-dicarbamoylpropyl)(6-{[2-(4-fluorophenyl)-2-methylpropyl]amino}pyridazin-3-yl)carboxamide]
- Mean AC1.4 [2]: D (D=>20 uM)

Compound: CC(=O)N1CC(NC(=O)c2cccc(-c3ccc(NC[C@]4(c5ncccc5F)C[C@H](F)C4)nn3)c2)C1 [N-(1-acetylazetidin-3-yl){3-[6-({[3-fluoro-1-(3-fluoro(2-pyridyl))cyclobutyl]methyl}ami-no)pyridazin-3-yl]phenyl}carboxamide]
- Mean AC1.4 [3]: B (B=1-10 uM)

Compound: CC(=O)N1CC(NC(=O)c2ccc(F)c(-c3ccc(NC[C@]4(c5ncccc5F)C[C@H](F)C4)nn3)c2)C1 [N-(1-acetylazetidin-3-yl){4-fluoro-3-[6-({[3-fluoro-1-(3-fluoro(2-pyridyl))cyclobutyl]methyl}ami-no)pyridazin-3-yl]phenyl}carboxamide]
- Mean AC1.4 [3]: A (A=<1 uM)

Compound: CC(C)CC(NC(=O)c1ccc(NCC(C)(C)c2ccc(F)cc2)nn1)C(N)=O (stereo not drawn) [N-(1-carbamoyl-3-methylbutyl)(6-{[2-(4-fluorophenyl)-2-methylpropyl]amino}pyridazin-3-yl)carboxamide]
- Mean AC1.4 [2]: C (C=10-20 uM)

Compound: O=C(Nc1nnc[nH]1)c1ccc(NCC2(c3ncccc3F)CCC2)nn1 [N-(1H-1,2,4-triazol-5-yl)[6-({[(3-fluoro(2-pyridyl))cyclobutyl]methyl}ami-no)pyridazin-3-yl]carboxamide]
- Mean AC1.4 [3]: D (D=>20 uM)

Compound: O=C(NCC(F)(F)CO)c1cnc(-c2ccc(NCC3(c4ncccc4F)CCC3)nn2)s1 [N-(2,2-difluoro-3-hydroxypropyl){2-[6-({[(3-fluoro(2-pyridyl))cyclobutyl]methyl}ami-no)pyridazin-3-yl](1,3-thiazol-5-yl)}carboxamide]
- Mean AC1.4 [1]: A (A=<1 uM)

Compound: O=C(NCC(F)F)c1ccc(F)c(-c2ccc(NC[C@]3(c4ncccc4F)C[C@H](F)C3)nn2)c1 [N-(2,2-difluoroethyl){4-fluoro-3-[6-({[3-fluoro-1-(3-fluoro(2-pyridyl))cyclobutyl]methyl}ami-no)pyridazin-3-yl]phenyl}carboxamide]
- Mean AC1.4 [3]: B (B=1-10 uM)

Compound: CC(C)(CNc1ccc(-c2cccc(C(=O)NCC(O)CO)c2)nn1)c1ccc(F)cc1 (stereo not drawn) [N-(2,3-dihydroxypropyl)[3-(6-{[2-(4-fluorophenyl)-2-methylpropyl]amino}pyridazin-3-yl)phenyl]carboxamide]
- Mean AC1.4 [2]: B (B=1-10 uM)

Compound: O=C(NCC(O)CO)c1cnc(-c2ccc(NCC3(c4ncccc4F)CCC3)nn2)s1 (stereo not drawn) [N-(2,3-dihydroxypropyl){2-[6-({[(3-fluoro(2-pyridyl))cyclobutyl]methyl}ami-no)pyridazin-3-yl](1,3-thiazol-5-yl)}carboxamide]
- Mean AC1.4 [1]: A (A=<1 uM)

Compound: C=Cc1ccc(NCC(C)(C)c2ccc(F)cc2)nn1 [N-(2-(4-fluorophenyl)-2-methylpropyl)-6-vinylpyridazin-3-amine]
- Mean AC1.4 [2]: B (B=1-10 uM)

Compound: NC(CNC(=O)c1cnc(-c2ccc(NCC3(c4ncccc4F)CCC3)nn2)s1)C(F)(F)F (stereo not drawn) [N-(2-amino-3,3,3-trifluoropropyl){2-[6-({[(3-fluoro(2-pyridyl))cyclobutyl]methyl}ami-no)pyridazin-3-yl](1,3-thiazol-5-yl)}carboxamide]
- Mean AC1.4 [1]: B (B=1-10 uM)

Compound: CC(C)(CNc1ccc(-c2cccc(C(=O)NCCN)c2)nn1)c1ccc(F)cc1 [N-(2-aminoethyl)[3-(6-{[2-(4-fluorophenyl)-2-methylpropyl]amino}pyridazin-3-yl)phenyl]carboxamide]
- Mean AC1.4 [2]: A (A=<1 uM)

Compound: NCCNC(=O)c1cnc(-c2ccc(NCC3(c4ncccc4F)CCC3)nn2)s1 [N-(2-aminoethyl){2-[6-({[(3-fluoro(2-pyridyl))cyclobutyl]methyl}ami-no)pyridazin-3-yl](1,3-thiazol-5-yl)}carboxamide]
- Mean AC1.4 [1]: A (A=<1 uM)

Compound: CC(C)(CNc1ccc(C(=O)NCCC(N)=O)nn1)c1ccc(F)cc1 [N-(2-carbamoylethyl)(6-{[2-(4-fluorophenyl)-2-methylpropyl]amino}pyridazin-3-yl)carboxamide]
- Mean AC1.4 [2]: D (D=>20 uM)

Compound: O=C(NCCF)c1ccc(F)c(-c2ccc(NC[C@]3(c4ncccc4F)C[C@H](F)C3)nn2)c1 [N-(2-fluoroethyl){4-fluoro-3-[6-({[3-fluoro-1-(3-fluoro(2-pyridyl))cyclobutyl]methyl}ami-no)pyridazin-3-yl]phenyl}carboxamide]
- Mean AC1.4 [3]: B (B=1-10 uM)

Compound: O=C(NC1CCOCC1)c1cccc(-c2ccc(NC[C@]3(c4ncccc4F)C[C@H](F)C3)nn2)c1 [N-(2H-3,4,5,6-tetrahydropyran-4-yl){3-[6-({[3-fluoro-1-(3-fluoro(2-pyridyl))cyclobutyl]methyl}ami-no)pyridazin-3-yl]phenyl}carboxamide]
- Mean AC1.4 [3]: B (B=1-10 uM)

Compound: O=C(NC1CC(F)(F)C1)c1ccc(F)c(-c2ccc(NC[C@]3(c4ncccc4F)C[C@H](F)C3)nn2)c1 [N-(3,3-difluorocyclobutyl){4-fluoro-3-[6-({[3-fluoro-1-(3-fluoro(2-pyridyl))cyclobutyl]methyl}ami-no)pyridazin-3-yl]phenyl}carboxamide]
- Mean AC1.4 [3]: A (A=<1 uM)

Compound: NCC(F)(F)CNC(=O)c1cnc(-c2ccc(NCC3(c4ncccc4F)CCC3)nn2)s1 [N-(3-amino-2,2-difluoropropyl){2-[6-({[(3-fluoro(2-pyridyl))cyclobutyl]methyl}ami-no)pyridazin-3-yl](1,3-thiazol-5-yl)}carboxamide]
- Mean AC1.4 [1]: A (A=<1 uM)

Compound: CC(C)(CNc1ccc(-c2cccc(C(=O)NCCCN)c2)nn1)c1ccc(F)cc1 [N-(3-aminopropyl)[3-(6-{[2-(4-fluorophenyl)-2-methylpropyl]amino}pyridazin-3-yl)phenyl]carboxamide]
- Mean AC1.4 [2]: B (B=1-10 uM)
